This passage reports inhibition results from patent EP2567959B1, “6-(4-HYDROXY-PHENYL)-3-STYRYL-1H-PYRAZOLO[3,4-B]PYRIDINE-4-CARBOXYLIC ACID AMIDE DERIVATIVES AS KINASE INHIBITORS” (SANOFI, priority 2011, dated 2013).

The assay deals with T1, human full-length recombinant PKC βII (Homo sapiens, UniProt P05771).
T1 construct: Active human full-length recombinant PKC βII; purchased Invitrogen GmbH, Darmstadt, Germany
T1 sequence (P05771 1-673 isoform P05771-2): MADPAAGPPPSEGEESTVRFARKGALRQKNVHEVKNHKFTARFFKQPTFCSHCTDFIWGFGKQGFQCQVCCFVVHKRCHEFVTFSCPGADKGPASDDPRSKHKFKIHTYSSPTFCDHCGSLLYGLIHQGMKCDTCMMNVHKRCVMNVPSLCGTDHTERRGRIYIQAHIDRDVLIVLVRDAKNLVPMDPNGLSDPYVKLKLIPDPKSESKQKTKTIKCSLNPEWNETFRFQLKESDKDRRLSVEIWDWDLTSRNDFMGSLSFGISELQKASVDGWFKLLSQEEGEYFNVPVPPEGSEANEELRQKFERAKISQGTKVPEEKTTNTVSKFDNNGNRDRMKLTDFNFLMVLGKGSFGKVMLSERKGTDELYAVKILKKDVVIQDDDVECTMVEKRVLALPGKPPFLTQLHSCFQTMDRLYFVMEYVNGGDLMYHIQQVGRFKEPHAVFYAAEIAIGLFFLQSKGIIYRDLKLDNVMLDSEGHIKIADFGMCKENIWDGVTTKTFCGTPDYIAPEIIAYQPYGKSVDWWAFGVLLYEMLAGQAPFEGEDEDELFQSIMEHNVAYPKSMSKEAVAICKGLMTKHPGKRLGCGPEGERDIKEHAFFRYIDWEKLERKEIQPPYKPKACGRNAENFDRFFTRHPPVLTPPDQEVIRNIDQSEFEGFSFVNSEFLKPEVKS
In words: Determination of PKC βII inhibition (Caliper mobility-shift kinase assay, phosphorylation of fluorescein peptide substrate). Type of assay: biochemical. Particulars: final compound concentration 1.14 µM (±0.15 µM); 60 min incubation at 32 °C. The method in brief:
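Active full-length PKC βII in pH 7.4 Hepes with MgCl2, CaCl2, PS, DAG and Triton X-100; substrate/ATP mix held 3 µM fluorescein peptide and 120 µM ATP before addition. Reaction ran 60 min at 32 °C, stopped with EDTA. Mobility-shift fractional turnover gave % inhibition at 1.14 µM (±0.15 µM) final compound.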
Consider `COc1ccc(/C=C/c2n[nH]c3nc(-c4ccc(O)cc4)cc(C(=O)N4CCNCC4)c23)cc1C` [Example 73, {6-(4-Hydroxy-phenyl)-3-[(E)-2-(4-methoxy-3-methyl-phenyl)-vinyl]-1H-pyrazolo[3,4-b]pyridin-4-yl}-piperazin-1-yl-methanone], for which the inhibition at 1.14 µM amounted to 98%.

With `CN(C)C(=O)N1CCN(C(=O)c2cc(-c3ccc(O)cc3)nc3[nH]nc(/C=C/c4ccccc4)c23)CC1` [Example 74, 4-[6-(4-Hydroxy-phenyl)-3-((E)-styryl)-1H-pyrazolo[3,4-b]pyridine-4-carbonyl]-piperazine-1-carboxylic acid dimethylamide], the inhibition at 1.14 µM stood at 27%.

Turning to `CC1(NC(=O)c2cc(-c3ccc(O)cc3)nc3[nH]nc(/C=C/c4ccccc4)c23)CCNCC1` [Example 75, 6-(4-Hydroxy-phenyl)-3-((E)-styryl)-1H-pyra-zolo[3,4-b]-pyridine-4-car-boxylic acid (4-methyl-piperidin-4-yl)-amide], the inhibition at 1.14 µM amounted to 93%.

Consider `CCCC[C@H]1CNCCN1C(=O)c1cc(-c2ccc(O)cc2)nc2[nH]nc(/C=C/c3ccccc3)c12` [Example 76, ((S)-2-Butyl-piperazin-1-yl)-[6-(4-hydroxy-phenyl)-3-((E)-styryl)-1H-pyra-zolo[3,4-b]-pyridin-4-yl]-methanone], for which the inhibition at 1.14 µM is 57%.

Consider `CCCC[C@@H]1CNCCN1C(=O)c1cc(-c2ccc(O)cc2)nc2[nH]nc(/C=C/c3ccccc3)c12` [Example 77, ((R)-2-Butyl-piperazin-1-yl)-[6-(4-hydroxy-phenyl)-3-((E)-styryl)-1H-pyra-zolo[3,4-b]-pyridin-4-yl]-methanone], for which the inhibition at 1.14 µM is 79%.

With `O=C(c1cc(-c2ccc(O)cc2)nc2[nH]nc(/C=C/c3ccccc3)c12)N1CCC2(CCNC2)C1` (stereo not shown) [Example 78, (2,7-Diaza-spiro-[4.4]non-2-yl)-[6-(4-hydroxy-phenyl)-3-((E)-styryl)-1H-pyra-zolo[3,4-b]py-ridin-4-yl]-methanone], the inhibition at 1.14 µM was 94%.

In the case of `O=C(c1cc(-c2ccc(O)cc2)nc2[nH]nc(/C=C/c3ccccc3)c12)N1CCNC2(CCCC2)C1` [Example 79, (6,9-Diaza-spiro-[4.5]dec-9-yl)-[6-(4-hydroxy-phenyl)-3-((E)-styryl)-1H-pyra-zolo[3,4-b]py-ridin-4-yl]-methanone], the inhibition at 1.14 µM was determined as 97%.

As for `CCC(CC)C(=O)N1CCN(C(=O)c2cc(-c3ccc(O)cc3)nc3[nH]nc(/C=C/c4ccccc4)c23)CC1` [Example 80, 2-Ethyl-1-{4-[6-(4-hydroxy-phenyl)-3-((E)-styryl)-1H-pyra-zolo[3,4-b]pyri-dine-4-carbonyl]-piperazin-1-yl}-butan-1-one], the inhibition at 1.14 µM is 26%.

`O=C(CN1CCOCC1)N1CCN(C(=O)c2cc(-c3ccc(O)cc3)nc3[nH]nc(/C=C/c4ccccc4)c23)CC1` [Example 81, 1-{4-[6-(4-Hydroxy-phenyl)-3-((E)-styryl)-1H-pyrazolo[3,4-b]-pyridine-4-car-bonyl]-piperazin-1-yl}-2-mor-pholin-4-yl-ethanone]: the inhibition at 1.14 µM amounted to 45%.

`COC(=O)N1CCN(C(=O)c2cc(-c3ccc(O)cc3)nc3[nH]nc(/C=C/c4ccccc4)c23)CC1` [Example 82, 4-[6-(4-Hydroxy-phenyl)-3-((E)-styryl)-1H-pyra-zolo[3,4-b]pyri-dine-4-carbonyl]-piperazine-1-carboxylic acid methyl ester]: the inhibition at 1.14 µM worked out at 56%.

`O=C(c1cccnc1)N1CCN(C(=O)c2cc(-c3ccc(O)cc3)nc3[nH]nc(/C=C/c4ccccc4)c23)CC1` [Example 83, [6-(4-Hydroxy-phenyl)-3-((E)-styryl)-1H-pyra-zolo[3,4-b]pyri-din-4-yl]-[4-(pyridine-3-carbonyl)-piperazin-1-yl]-methanone]: the inhibition at 1.14 µM came out at 90%.

`CN(C)C(=O)CN1CCN(C(=O)c2cc(-c3ccc(O)cc3)nc3[nH]nc(/C=C/c4ccccc4)c23)CC1` [Example 84, 2-{4-[6-(4-Hydroxy-phenyl)-3-((E)-styryl)-1H-pyrazolo[3,4-b]-pyridine-4-carbo-nyl]-piperazin-1-yl}-N,N-dimethyl-acetamide]: the inhibition at 1.14 µM was 54%.

Turning to `O=C(c1cc(-c2ccc(O)cc2)nc2[nH]nc(/C=C/c3ccccc3)c12)N1CCN(C2CC2)CC1` [Example 85, (4-Cyclopropyl-piperazin-1-yl)-[6-(4-hydroxy-phenyl)-3-((E)-styryl)-1H-pyra-zolo[3,4-b]py-ridin-4-yl]-methanone], the inhibition at 1.14 µM is 19%.

In the case of `CC(C)(O)C(=O)N1CCN(C(=O)c2cc(-c3ccc(O)cc3)nc3[nH]nc(/C=C/c4ccccc4)c23)CC1` [Example 86, 2-Hydroxy-1-{4-[6-(4-hydroxy-phenyl)-3-((E)-styryl)-1H-pyra-zolo[3,4-b]pyri-dine-4-carbonyl]-piperazin-1-yl}-2-methyl-propan-1-one], the inhibition at 1.14 µM was found to be 93%.

Consider `CC(C)(CO)C(=O)N1CCN(C(=O)c2cc(-c3ccc(O)cc3)nc3[nH]nc(/C=C/c4ccccc4)c23)CC1` [Example 87, 3-Hydroxy-1-{4-[6-(4-hydroxy-phenyl)-3-((E)-styryl)-1H-pyra-zolo[3,4-b]pyri-dine-4-carbonyl]-piperazin-1-yl}-2,2-dimethyl-propan-1-one], for which the inhibition at 1.14 µM was found to be 94%.

Consider `COCCC(=O)N1CCN(C(=O)c2cc(-c3ccc(O)cc3)nc3[nH]nc(/C=C/c4ccccc4)c23)CC1` [Example 88, 1-{4-[6-(4-Hydroxy-phenyl)-3-((E)-styryl)-1H-pyrazolo[3,4-b]-pyridine-4-carbonyl]-piperazin-1-yl}-3-methoxy-propan-1-one], for which the inhibition at 1.14 µM came to 89%.

For orientation: inhibition means the percentage by which the read-out fell short of the control.
